The results in this text go back to ChEMBL document CHEMBL5291721, “A preclinical secondary pharmacology resource illuminates target-adverse drug reaction associations of marketed drugs” (Nat Commun, 2023).

Assay [1] addresses T1, Bile acid receptor (Homo sapiens, UniProt Q96RI1).
T1 sequence (Q96RI1 whole entry): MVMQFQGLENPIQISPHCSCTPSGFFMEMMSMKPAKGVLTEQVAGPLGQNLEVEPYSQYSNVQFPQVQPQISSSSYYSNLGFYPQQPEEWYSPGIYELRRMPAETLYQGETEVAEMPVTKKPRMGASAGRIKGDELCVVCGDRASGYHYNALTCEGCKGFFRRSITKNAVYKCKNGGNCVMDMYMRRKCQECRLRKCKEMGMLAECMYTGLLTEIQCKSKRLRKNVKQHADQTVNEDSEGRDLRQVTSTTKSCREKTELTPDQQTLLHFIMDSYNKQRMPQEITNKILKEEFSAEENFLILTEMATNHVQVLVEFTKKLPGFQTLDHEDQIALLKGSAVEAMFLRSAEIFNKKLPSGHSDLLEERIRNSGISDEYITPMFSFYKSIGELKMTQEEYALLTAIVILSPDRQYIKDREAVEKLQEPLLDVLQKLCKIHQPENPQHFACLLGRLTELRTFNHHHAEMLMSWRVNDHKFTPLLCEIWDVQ
Type of assay: functional.

Assay [2] deals with T2, Retinoic acid receptor alpha (Homo sapiens, UniProt P10276).
T2 sequence (P10276 whole entry): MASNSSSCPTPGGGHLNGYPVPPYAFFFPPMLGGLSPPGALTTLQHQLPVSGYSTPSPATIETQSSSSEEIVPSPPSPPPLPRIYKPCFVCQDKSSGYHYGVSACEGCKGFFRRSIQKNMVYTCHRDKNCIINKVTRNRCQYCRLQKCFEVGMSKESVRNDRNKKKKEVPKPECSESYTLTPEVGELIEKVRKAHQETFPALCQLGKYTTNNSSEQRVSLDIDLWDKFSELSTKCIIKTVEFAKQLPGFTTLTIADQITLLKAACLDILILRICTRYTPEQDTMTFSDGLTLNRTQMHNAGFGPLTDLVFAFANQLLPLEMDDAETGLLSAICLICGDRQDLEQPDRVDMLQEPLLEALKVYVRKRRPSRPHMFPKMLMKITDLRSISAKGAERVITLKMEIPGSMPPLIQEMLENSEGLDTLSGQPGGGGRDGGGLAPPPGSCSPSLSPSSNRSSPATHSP
The class given is functional, cell-based.

In assay [3] the target is T1, Bile acid receptor. Type of assay: functional. This is another data set of the same source.
Assay [4] deals with T3, Peroxisome proliferator-activated receptor alpha (Homo sapiens, UniProt Q07869).
T3 sequence (Q07869 whole entry): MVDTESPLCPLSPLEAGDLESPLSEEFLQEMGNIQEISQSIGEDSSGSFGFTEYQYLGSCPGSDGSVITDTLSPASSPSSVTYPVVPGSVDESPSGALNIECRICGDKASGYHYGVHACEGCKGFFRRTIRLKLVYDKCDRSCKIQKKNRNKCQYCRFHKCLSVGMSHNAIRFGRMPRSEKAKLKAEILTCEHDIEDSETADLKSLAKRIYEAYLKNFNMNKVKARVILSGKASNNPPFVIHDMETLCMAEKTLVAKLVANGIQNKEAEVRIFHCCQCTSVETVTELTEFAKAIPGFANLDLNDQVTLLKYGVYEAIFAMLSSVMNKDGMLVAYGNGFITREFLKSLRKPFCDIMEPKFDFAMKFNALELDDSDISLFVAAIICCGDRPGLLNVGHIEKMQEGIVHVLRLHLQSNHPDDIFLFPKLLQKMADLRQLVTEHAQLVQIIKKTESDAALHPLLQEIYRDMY
The class given is functional.

In assay [5] the target is T1, Bile acid receptor. The class given is functional. This is another data set of the same source.
In assay [6] the target is T4, Oxysterols receptor LXR-beta (Homo sapiens, UniProt P55055).
T4 sequence (P55055 whole entry): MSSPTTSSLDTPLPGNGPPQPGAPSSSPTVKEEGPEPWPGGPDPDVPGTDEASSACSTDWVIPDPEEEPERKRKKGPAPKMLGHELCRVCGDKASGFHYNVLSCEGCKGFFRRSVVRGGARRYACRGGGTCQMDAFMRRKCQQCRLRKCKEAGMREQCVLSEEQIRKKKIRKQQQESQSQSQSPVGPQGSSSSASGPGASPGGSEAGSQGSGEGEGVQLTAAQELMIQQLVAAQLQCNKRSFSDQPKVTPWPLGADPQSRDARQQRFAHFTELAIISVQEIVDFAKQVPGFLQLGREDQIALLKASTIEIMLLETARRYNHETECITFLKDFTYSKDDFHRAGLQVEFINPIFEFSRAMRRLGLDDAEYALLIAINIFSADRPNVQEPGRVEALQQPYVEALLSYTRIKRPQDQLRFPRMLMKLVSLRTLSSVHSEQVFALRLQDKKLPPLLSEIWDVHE
Type of assay: functional.

Assay [7] has as its target T5, Retinoic acid receptor beta (Homo sapiens, UniProt P10826).
T5 sequence (P10826 whole entry): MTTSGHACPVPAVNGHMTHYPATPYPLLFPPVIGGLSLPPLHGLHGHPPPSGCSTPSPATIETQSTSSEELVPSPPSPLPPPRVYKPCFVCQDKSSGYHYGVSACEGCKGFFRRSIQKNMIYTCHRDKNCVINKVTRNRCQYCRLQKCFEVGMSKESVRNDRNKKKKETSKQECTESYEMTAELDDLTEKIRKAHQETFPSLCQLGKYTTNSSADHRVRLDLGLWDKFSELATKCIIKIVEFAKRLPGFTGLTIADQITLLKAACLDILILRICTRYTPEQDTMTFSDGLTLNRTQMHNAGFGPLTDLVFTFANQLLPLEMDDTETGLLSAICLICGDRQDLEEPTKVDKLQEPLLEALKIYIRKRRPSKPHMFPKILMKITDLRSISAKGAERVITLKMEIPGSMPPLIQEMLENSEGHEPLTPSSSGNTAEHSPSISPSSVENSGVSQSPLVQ
Type of assay: functional, cell-based.

In assay [8] the target is 5-hydroxytryptamine receptor 2B (Homo sapiens, UniProt P41595).
5-hydroxytryptamine receptor 2B, sequence (P41595 whole entry): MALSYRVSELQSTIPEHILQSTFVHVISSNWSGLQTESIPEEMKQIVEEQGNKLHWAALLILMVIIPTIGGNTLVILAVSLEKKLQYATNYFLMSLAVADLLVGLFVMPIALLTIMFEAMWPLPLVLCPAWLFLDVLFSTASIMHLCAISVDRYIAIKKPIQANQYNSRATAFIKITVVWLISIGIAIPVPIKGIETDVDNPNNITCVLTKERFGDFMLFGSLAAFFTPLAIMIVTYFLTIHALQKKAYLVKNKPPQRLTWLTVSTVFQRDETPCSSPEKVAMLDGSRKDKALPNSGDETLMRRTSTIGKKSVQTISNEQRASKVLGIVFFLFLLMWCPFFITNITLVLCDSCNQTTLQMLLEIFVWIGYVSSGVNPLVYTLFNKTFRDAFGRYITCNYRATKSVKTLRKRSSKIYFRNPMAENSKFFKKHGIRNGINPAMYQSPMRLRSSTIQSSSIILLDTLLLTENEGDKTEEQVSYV
In the next assay the target is T6, Thromboxane A2 receptor (Homo sapiens, UniProt P21731).
T6 sequence (P21731 whole entry): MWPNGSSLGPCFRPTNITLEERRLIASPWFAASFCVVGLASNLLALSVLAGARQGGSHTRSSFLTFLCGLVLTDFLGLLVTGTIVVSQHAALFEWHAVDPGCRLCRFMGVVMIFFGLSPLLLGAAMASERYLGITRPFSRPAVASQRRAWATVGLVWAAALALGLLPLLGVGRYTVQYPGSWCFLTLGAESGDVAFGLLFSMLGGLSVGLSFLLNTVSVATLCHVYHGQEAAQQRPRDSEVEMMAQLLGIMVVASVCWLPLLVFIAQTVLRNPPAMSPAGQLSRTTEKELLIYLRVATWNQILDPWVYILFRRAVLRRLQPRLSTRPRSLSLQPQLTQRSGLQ
Type of assay: functional, cell-based.

Molecules are shown by their SMILES.
Note: assay procedure not described here.

On to `CC(=O)N1CCN(c2ccc(OCC3COC(Cn4ccnc4)(c4ccc(Cl)cc4Cl)O3)cc2)CC1` (centres undefined) [KETOCONAZOLE], for which the AC50 on Bile acid receptor [1] was > 30 µM; in assay [2] it was > 30 µM; on Bile acid receptor [3] it was > 30 µM; in assay [4], > 30 µM; at Bile acid receptor [5], > 10 µM; in [6] it was > 30 µM. In addition, the AC50 in assay [7] was > 30 µM.

As for `N=C(N)NC(=O)Cc1c(Cl)cccc1Cl` [GUANFACINE], the half-maximal activity concentration (AC50) was 1.01 µM in assay [8] and > 30 µM at Thromboxane A2 receptor.

As a reminder, the AC50 is the midpoint of the concentration-response curve, whichever way the signal moves. A low value points to greater potency.
